From patent US11708357B2, “Crystal form of pyrrolidinyl urea derivative and application thereof” (ZHANGZHOU PIEN TZE HUANG PHARMACEUTICAL CO., LTD., priority 2020, dated 2023)

How the values were obtained:
[1] = In vivo pharmacokinetic study in rats after single administration; details: male, Sprague Dawley, rat, plasma, 300 mg/kg, 300 mpk oral administration
Method: Male SD rats were used as test animals, and the concentration of the compound in blood was determined after single administration to evaluate the pharmacokinetic behavior.
Sprague Dawley rats (male, 200-300 g, 7-9 weeks, Shanghai Charles River Laboratory Animal Co., Ltd.)
The pharmacokinetic characteristics of the test compound in rodents after intravenous injection and oral administration were tested by standard protocols, in the experiment, the test compound was prepared into a clear solution or homogeneous suspension, and administered to the rats by single intravenous injection and oral administration. In the intravenous injection group, the menstruum was a certain proportion of ethanol and physiological saline solution or a certain proportion of dimethyl sulfoxide in HP-β cyclodextrin solution (the pH was adjusted to 3-4), the mixture was vortexed and stirred to prepare 1 mg/mL clear solution, then filtered with microporous membrane for later use; in the oral administration group, the menstruum was a certain proportion of sodium carboxymethyl cellulose solution or a certain proportion of dimethyl sulfoxide in HP-β cyclodextrin solution (the pH was adjusted to about 4), after the test compound was mixed with the solvent, the mixture was vortexed and stirred to prepare 30 mg/mL homogeneous suspension for later use. After 2 mg/kg intravenous administration or 300 mg/kg oral administration to rats, a certain amount of whole blood samples were collected, centrifuged at 3000 g for 15 minutes, the supernatant was separated to obtain the plasma samples; then an acetonitrile solution containing internal standard with a volume 3 times that of the plasma sample was added to precipitate proteins, and then centrifuged; the supernatant was separated, and water with a volume twice that of the supernatant was added to the supernatant, which was then centrifuged again; the supernatant was collected for analysis; LC-MS/MS analysis method was used to quantitatively analyze the blood drug concentration, and Phoenix WinNonlin software (Pharsight, USA) was used to calculate the pharmacokinetic parameters, such as peak concentration, time to peak concentration, clearance rate, half-life, area under the concentration-time curve, bioavailability, etc.
(§1) Among them, C0 is the initial concentration, T1/2 is the elimination half-life, Vdss is the steady-state apparent volume of distribution, Cl is the total clearance rate, AUC0-inf is the area under the plasma drug concentration-time curve from time 0 to infinity, Cmax is the peak concentration, Tmax is the time to peak concentration.

[2] = In vivo pharmacokinetic study in beagle dogs after single administration; details: male, dog, plasma, 10 mg/kg, 10 mpk oral administration
Method: Male beagle dogs were used as test animals, the concentration of the compound in blood after single administration was determined to evaluate the pharmacokinetic behavior.
Beagle dogs (Male, 6-12 kg, more than 6 months, Beijing Marshall Biotechnology Co., Ltd.).
The objective of the test was to study the pharmacokinetic characteristics of the test compound in non-rodent after intravenous injection and oral administration. In the experiment, the test compound was prepared into a clear solution or homogeneous suspension and administered to the beagle dogs by single intravenous injection or oral administration. In the intravenous injection group, the menstruum was a certain proportion of dimethyl sulfoxide in HP-β-cyclodextrin solution or a certain proportion of ethanol, polyethylene glycol 400 and physiological saline solution, the mixture was vortexed and subjected to ultrasonic treatment to prepare 2 mg/mL clear solution, then filtered with microporous membrane for later use; in the oral administration group, the menstruum was a certain proportion of dimethyl sulfoxide in HP-β-cyclodextrin solution or a certain proportion of sodium carboxymethyl cellulose solution, the test compound was mixed with the menstruum, vortexed and subjected to ultrasonic treatment to prepare 2 mg/mL homogeneous suspension for later use. After 2 mg/kg intravenous administration or 10 mg/kg oral administration to the Beagle dogs, a certain amount of whole blood samples were collected, centrifuged at 3000 g for 10 minutes, and the supernatant was separated to obtain plasma samples; then an acetonitrile solution containing internal standard with a volume 10 times that of the plasma sample was added to precipitate proteins, and then centrifuged; the supernatant was separated for analysis; LC-MS/MS analysis method was used to quantitatively analyze the blood drug concentration, and Phoenix WinNonlin software (Pharsight, USA) was used to calculate the pharmacokinetic parameters, such as peak concentration, time to peak concentration, clearance rate, half-life, area under the concentration-time curve, bioavailability, etc.
as §1

[3] = Solid stability test (XRPD and HPLC purity); type: physicochemical
Method: Samples placed under high temperature and high humidity conditions were sealed with aluminum foil paper and small holes were punched in the aluminum foil paper to ensure that the sample could fully contact with ambient air; […] Samples placed under high temperature (60° C.) and high humidity (92.5% humidity, room temperature) conditions were sampled and tested (XRPD and purity) on the 5th and 10th day. […] Samples placed under the condition of illumination were sampled and tested when the total illuminance reached 1.2×10^6 Lux·hr.

[4] = Hygroscopicity by dynamic vapor sorption (DVS); type: physicochemical; details: 25° C. and 80% RH
Method: Instrument model: Intrinsic dynamic vapor sorption instrument
Detection conditions: A sample (10-30 mg) was placed in a DVS sample tray for detection.
Balance: dm/dt=0.002%/min (shortest: 10 min, longest: 180 min)

[5] = 40° C., relative humidity 75%, opened, 30 days
[6] = 40° C., relative humidity 75%, opened, 60 days
[7] = 60° C., relative humidity 75%, opened, 30 days
[8] = 60° C., relative humidity 75%, opened, 60 days
[9] = High humidity (room temperature/relative humidity 92.5%, opened), 5 days
[10] = High humidity (room temperature/relative humidity 92.5%, opened), 10 days
[11] = High temperature (60° C., opened), 5 days
[12] = High temperature (60° C., opened), 10 days
[13] = Illumination (total illuminance 1.2 × 10^6 Lux · hr/near ultraviolet 200 w · hr/m^2, opened)

Molecule COCCN1C[C@@H](n2ccc(F)c2)[C@H](NC(=O)Nc2c(C)c(-c3cnc(C4(F)COC4)nc3)nn2-c2ccccc2)C1 has an AUC(0-inf) [1] of 276 µM·h, a Cmax [1] of 48.5 µM and a Tmax [1] of 45 min. The bioavailability [1] was 70.5%, the half-life [1] was 195 min and the AUC(0-inf) [2] was 26.4 µM·h. The Cmax [2] was 10.4 µM, the Tmax [2] was 45 min and the bioavailability [2] was 113%. The half-life [2] was 57 min, the “Crystal form (XRPD)” value ([3]; 0 day (initial)) was “Crystal form E” and the Purity ([3]; 0 day (initial)) was 98.75%. For the same molecule, the “Crystal form (XRPD)” value [3, 5] was “Crystal form E”, the Purity [3, 5] was 98.14% and the “Crystal form (XRPD)” value [3, 6] was “Crystal form E”. For the same molecule, the Purity [3, 6] was 98.06%, the “Crystal form (XRPD)” value [3, 7] was “Crystal form E” and the Purity [3, 7] was 98.17%. For the same molecule, the “Crystal form (XRPD)” value [3, 8] was “Crystal form E”, the Purity [3, 8] was 98.22% and the “Crystal form (XRPD)” value [3, 9] was “Crystal form E”. For the same molecule, the Purity [3, 9] was 98.62%, the “Crystal form (XRPD)” value [3, 10] was “Crystal form E” and the Purity [3, 10] was 98.72%. The “Crystal form (XRPD)” value [3, 11] was “Crystal form E”, the Purity [3, 11] was 98.74% and the “Crystal form (XRPD)” value [3, 12] was “Crystal form E”. For the same molecule, the Purity [3, 12] was 98.74%, the “Crystal form (XRPD)” value [3, 13] was “Crystal form E” and the Purity [3, 13] was 98.83%. The Classification of hygroscopicity [4] was “hygroscopic (15% > ΔW % ≥ 2%)” and the “hygroscopic weight gain ΔW” value [4] was 6.228%.
